Values after ≈ are worked out from the molar mass of the structure shown. Active and inactive are the calls of the source. The calls are words filed in the database; no cut-off is given here.
How the values were obtained:
[1] = Toxicity in BALB/c mouse infected with Candida albicans 901 assessed as pathological change in lung at 0.5 ug/g administered 6 times measured after 4 days by H and E staining based analysis; assay type: tissue-based; conditions: in vivo, 96 h, dose 0.5 µg/g, time 4 day
Candida albicans [2] = test: Induction of morphological changes in Candida albicans SC5314 assessed as decrease in cell wall thickness measured after 48 hrs by TEM analysis; assay type: functional, organism-based
[3] = Toxicity in BALB/c mouse infected with Candida albicans 901 assessed as pathological change in spleen at 0.5 ug/g administered 6 times measured after 4 days by H and E staining based analysis; assay type: tissue-based; conditions: in vivo, 96 h, dose 0.5 µg/g, time 4 day
Candida albicans [4] = test: Induction of morphological changes in Candida albicans SC5314 assessed as accumulation of low-density granules measured for 96 to 144 hrs by TEM analysis; assay type: functional, organism-based; conditions: time 96-144 hrs
Mus musculus [5] = test: Antiinflammatory activity in BALB/c mouse infected with Candida albicans 901 assessed as decrease in INF-gamma level at 0.5 ug/g administered 6 times measured after 4 days by IHC analysis; assay type: functional, organism-based; conditions: dose 0.5 µg/g, time 4.0 day
[6] = Toxicity in BALB/c mouse infected with Candida albicans 901 assessed as pathological change in heart at 0.5 ug/g administered 6 times measured after 4 days by H and E staining based analysis; assay type: tissue-based; conditions: in vivo, 96 h, dose 0.5 µg/g, time 4 day
[7] = Toxicity in BALB/c mouse infected with Candida albicans 901 assessed as plasma BUN level at 0.5 ug/g administered 6 times measured after 4 days (reference value: 20.4 +/- 1.5 mmol/L); conditions: in vivo, 96 h, dose 0.5 µg/g, time 4 day
[8] = target: T1, Lanosterol 14-alpha demethylase (Candida albicans (strain SC5314 / ATCC MYA-2876) (Yeast), UniProt P10613); test: Inhibition of CYP51 in Candida albicans SC5314 assessed as unknown sterol level at 4 ug/ml incubated for 16 hrs by GC-MS analysis (reference value: 5.35 %); set-up: scale not given: the % may be the effect or the level left; conditions: at 4 µg/mL
Candida albicans [9] = test: Antifungal activity against Candida albicans 901 infected in BALB/c mouse assessed as appearance of necrotic cell fragments in interstitial space at 0.5 ug/g administered 6 times measured after 4 days by H and E staining based analysis; assay type: functional, organism-based; conditions: dose 0.5 µg/g, time 4.0 day
Candida albicans [10] = test: Antifungal activity against FLC-resistant Candida albicans 632 assessed as fungal growth inhibition incubated for 72 hrs by CLSI based susceptibility test; assay type: functional
Candida albicans [11] = test: Induction of morphological changes in Candida albicans SC5314 assessed as edematous vacuoles measured for 96 to 144 hrs by TEM analysis; assay type: functional, organism-based; conditions: time 96-144 hrs
Candida albicans [12] = test: Induction of apoptosis in Candida albicans SC5314 assessed as necrotic cells incubated for 48 hrs by annexin V-FITC/PI staining based flow cytometry (reference value: 2.12 %); assay type: functional
Candida albicans [13] = test: Induction of morphological changes in Candida albicans SC5314 assessed as reduction in cytoplasmic density measured for 96 to 144 hrs by TEM analysis; assay type: functional, organism-based; conditions: time 96-144 hrs
Candida albicans [14] = test: Induction of immunity in BALB/c mouse infected with Candida albicans 901 assessed as increase in CD8 positive level at 0.5 ug/g administered 6 times measured after 4 days by IHC analysis; assay type: functional, organism-based; conditions: dose 0.5 µg/g, time 4.0 day
Candida albicans [15] = test: Induction of morphological changes in Candida albicans SC5314 assessed as decrease in cell membrane thickness measured after 48 hrs by TEM analysis; assay type: functional, organism-based
Candida albicans [16] = test: Antifungal activity against Candida albicans 901 infected in BALB/c mouse assessed as inhibition of fungal proliferation at 0.5 ug/g administered 6 times measured after 4 days by GMS staining based analysis; assay type: functional, organism-based; conditions: dose 0.5 µg/g, time 4.0 day
Candida albicans [17] = test: Induction of mitochondrial membrane depolarization in Candida albicans SC5314 by JC-1 staining based flow cytometry (reference value: 12.51 %); assay type: functional
[18] = Toxicity in BALB/c mouse infected with Candida albicans 901 assessed as plasma CRE level at 0.5 ug/g administered 6 times measured after 4 days (reference value: 18.48 +/- 2.7 umol/L); conditions: in vivo, 96 h, dose 0.5 µg/g, time 4 day
Candida albicans [19] = test: Antifungal activity against Candida albicans 901 infected in BALB/c mouse assessed as repair of tissue damage at 0.5 ug/g administered 6 times measured after 4 days by Masson staining based analysis; assay type: functional, organism-based; conditions: dose 0.5 µg/g, time 4.0 day
Mus musculus [20] = test: Antiinflammatory activity in BALB/c mouse infected with Candida albicans 901 assessed as decrease in COX-2 level at 0.5 ug/g administered 6 times measured after 4 days by IHC analysis; assay type: functional, organism-based; conditions: dose 0.5 µg/g, time 4.0 day
Mus musculus [21] = test: Antiinflammatory activity in BALB/c mouse infected with Candida albicans 901 assessed as decrease in IL-2 level at 0.5 ug/g administered 6 times measured after 4 days by IHC analysis; assay type: functional, organism-based; conditions: dose 0.5 µg/g, time 4.0 day
Candida albicans [22] = test: Induction of morphological changes in Candida albicans SC5314 assessed as leakage of cell contents measured for 96 to 144 hrs by TEM analysis; assay type: functional, organism-based; conditions: time 96-144 hrs
Candida albicans [23] = test: Induction of morphological changes in Candida albicans SC5314 assessed as necrotic cellular debris measured for 96 to 144 hrs by TEM analysis; assay type: functional, organism-based; conditions: time 96-144 hrs
Candida tropicalis = test: Antifungal activity against Candida tropicalis ATCC 1369 assessed as fungal growth inhibition incubated for 72 hrs by CLSI based susceptibility test; assay type: functional
Candida albicans [24] = test: Antifungal activity against Candida albicans 901 infected in BALB/c mouse assessed as decrease in collagen fiber content at 0.5 ug/g administered 6 times measured after 4 days by Masson staining based analysis; assay type: functional, organism-based; conditions: dose 0.5 µg/g, time 4.0 day
Nakaseomyces glabratus = test: Antifungal activity against Candida glabrata assessed as fungal growth inhibition incubated for 72 hrs by CLSI based susceptibility test; assay type: functional
Candida albicans [25] = test: Antifungal activity against FLC-resistant Candida albicans CaR assessed as fungal growth inhibition incubated for 72 hrs by CLSI based susceptibility test; assay type: functional
[26] = Toxicity in BALB/c mouse infected with Candida albicans 901 assessed as plasma ALT level at 0.5 ug/g administered 6 times measured after 4 days (reference value: 30.4 +/- 4.6 IU/L); conditions: in vivo, 96 h, dose 0.5 µg/g, time 4 day
[27] = Drug uptake in Candida albicans SC5314 assessed as increase in blue fluorescence by hoechst 33256 staining based imaging analysis; assay type: ADME
Candida albicans [28] = test: Antifungal activity against Candida albicans SC5314 assessed as fungal growth inhibition incubated for 72 hrs by CLSI based susceptibility test; assay type: functional
Candida albicans [29] = test: Antifungal activity against Candida albicans 901 infected in BALB/c mouse assessed as disappearance of nuclear aggregation in lesion at 0.5 ug/g administered 6 times measured after 4 days by H and E staining based analysis; assay type: functional, organism-based; conditions: dose 0.5 µg/g, time 4.0 day
[30] = Drug uptake in Candida albicans SC5314 assessed as increase in green fluorescence by imaging analysis; assay type: ADME
[31] = Drug uptake in Candida albicans SC5314 assessed as increase in red fluorescence by PI staining based imaging analysis; assay type: ADME
[32] = target: T1, Lanosterol 14-alpha demethylase; test: Inhibition of CYP51 in Candida albicans SC5314 assessed as ergosterol level at 4 ug/ml incubated for 16 hrs by GC-MS analysis (reference value: 92.07 %); set-up: scale not given: the % may be the effect or the level left; conditions: at 4 µg/mL
Candida albicans [33] = test: Induction of apoptosis in Candida albicans SC5314 assessed as apoptotic cells incubated for 48 hrs by annexin V-FITC/PI staining based flow cytometry (reference value: 2.12 %); assay type: functional
[34] = target: T2, Programmed cell death 1 ligand 1 (Homo sapiens, UniProt Q9NZQ7); test: Inhibition of human PD-L1 incubated for 15 mins by ELISA method
[35] = target: T2, Programmed cell death 1 ligand 1; test: Binding affinity to PD-L1 (unknown origin) immobilized on carboxy chip assessed as dissociation constant by SPR analysis

T2 sequence (Q9NZQ7 whole entry): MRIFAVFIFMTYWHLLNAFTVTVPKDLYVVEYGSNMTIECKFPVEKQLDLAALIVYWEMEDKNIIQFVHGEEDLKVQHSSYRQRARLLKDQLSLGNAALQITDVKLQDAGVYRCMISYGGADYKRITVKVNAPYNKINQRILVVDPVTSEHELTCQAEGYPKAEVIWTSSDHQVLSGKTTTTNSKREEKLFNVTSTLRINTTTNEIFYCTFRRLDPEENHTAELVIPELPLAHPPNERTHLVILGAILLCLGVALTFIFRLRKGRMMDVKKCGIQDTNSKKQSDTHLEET
T1 sequence (P10613 whole entry, the tested form may be a part): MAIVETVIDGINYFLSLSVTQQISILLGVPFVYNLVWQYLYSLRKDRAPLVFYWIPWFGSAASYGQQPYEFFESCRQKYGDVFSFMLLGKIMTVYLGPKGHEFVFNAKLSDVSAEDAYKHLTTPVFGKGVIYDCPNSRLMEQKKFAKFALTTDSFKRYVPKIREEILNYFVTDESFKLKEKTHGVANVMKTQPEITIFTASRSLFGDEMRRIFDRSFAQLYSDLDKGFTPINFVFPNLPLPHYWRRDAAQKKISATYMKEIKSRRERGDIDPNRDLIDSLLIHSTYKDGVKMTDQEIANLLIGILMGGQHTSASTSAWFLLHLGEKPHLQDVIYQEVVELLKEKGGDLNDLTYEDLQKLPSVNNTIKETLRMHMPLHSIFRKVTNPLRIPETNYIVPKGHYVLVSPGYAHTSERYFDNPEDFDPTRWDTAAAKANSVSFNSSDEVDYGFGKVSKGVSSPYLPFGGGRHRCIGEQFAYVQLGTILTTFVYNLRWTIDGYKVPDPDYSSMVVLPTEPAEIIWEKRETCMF

COC(=O)[C@@H](Cn1cncn1)NCc1cccc(OCc2cccc(-c3ccccc3)c2C)c1
Activity [1]: Non-Toxic | Activity (Candida albicans [2]): Active | Activity [3]: Non-Toxic | Activity (Candida albicans [4]): Active | Activity (Mus musculus [5]): Active | Activity [6]: Non-Toxic | Activity [7]: 24.7 mmol/L | Activity [8]: 6.65% | Activity (Candida albicans [9]): Active | MIC50 (Candida albicans [10]): 4 µg/mL (≈ 8.76 µM) | Activity (Candida albicans [11]): Active | Activity (Candida albicans [12]): 25.91% | Activity (Candida albicans [13]): Active | Activity (Candida albicans [14]): Active | Activity (Candida albicans [15]): Active | inhibition (Candida albicans [16]): Active | Activity (Candida albicans [17]): 34.74% | Activity [18]: 10.91 µmol/L | Activity (Candida albicans [19]): Active | Activity (Mus musculus [20]): Active | Activity (Mus musculus [21]): Active | Activity (Candida albicans [22]): Active | Activity (Candida albicans [23]): Active | MIC50 (Candida tropicalis): 0.5 µg/mL (≈ 1.1 µM) | Activity (Candida albicans [24]): Active | MIC50 (Nakaseomyces glabratus): 0.125 µg/mL (≈ 0.274 µM) | MIC50 (Candida albicans [25]): 2 µg/mL (≈ 4.38 µM) | Activity [26]: 21.5 IU/L | Drug uptake [27]: Active | MIC50 (Candida albicans [28]): 0.125 µg/mL (≈ 0.274 µM) | Activity (Candida albicans [29]): Active | Drug uptake [30]: Active | Drug uptake [31]: Active | Activity [32]: 9.72% | Activity (Candida albicans [33]): 25.91% | IC50 [34]: 21 nM | Kd [35]: 15 nM

From ChEMBL document CHEMBL5365529, “Construction and Evaluation of Novel Dual-function Antifungal Inhibitors and Covalent Organic Framework Carriers Based on the Infection Microenvironment” (J Med Chem, 2023)
